Measured values as given in paper PMC5513037, “Examining the influence of specificity ligands and ATP-competitive ligands on the overall effectiveness of bivalent kinase inhibitors” (Proteome Science, 2017).

Legend:
Test in all cases: KAM-matrix competition in K562 lysate;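 as to 0.001 uM KAM: median log10 fold change of treatment over DMSO control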;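 as to 0.01 uM KAM: median log10 fold change of treatment over DMSO control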;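 as to 0.1 uM KAM: median log10 fold change of treatment over DMSO control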;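 as to 1 uM KAM: median log10 fold change of treatment over DMSO control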;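 as to 10 uM KAM: median log10 fold change of treatment over DMSO control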
Assay type in all cases: binding
[1] = target: T1, PBK (Homo sapiens, UniProt Q96KB5);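 as to 0.001 uM KAM: median log10 fold change of treatment over DMSO control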;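 as to 0.01 uM KAM: median log10 fold change of treatment over DMSO control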;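 as to 0.1 uM KAM: median log10 fold change of treatment over DMSO control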;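 as to 1 uM KAM: median log10 fold change of treatment over DMSO control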;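 as to 10 uM KAM: median log10 fold change of treatment over DMSO control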
T1 construct: endogenous in cells; host or cells: K562
T1 sequence (Q96KB5 1-322): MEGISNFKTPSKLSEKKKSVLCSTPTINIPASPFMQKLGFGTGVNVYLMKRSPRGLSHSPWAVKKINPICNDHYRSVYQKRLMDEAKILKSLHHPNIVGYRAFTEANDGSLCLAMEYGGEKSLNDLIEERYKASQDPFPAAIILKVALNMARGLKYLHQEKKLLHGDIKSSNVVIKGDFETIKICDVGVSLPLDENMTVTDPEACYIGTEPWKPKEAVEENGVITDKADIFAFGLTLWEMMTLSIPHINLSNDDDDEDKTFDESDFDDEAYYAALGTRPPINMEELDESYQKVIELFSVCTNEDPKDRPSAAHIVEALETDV
Protocol: (§1) Supplement 12953_2017_125_MOESM1_ESM.zip/MS_Supp Info.xlsx, sheet "KAM" | column: 10 uM KAM; 1 uM KAM; 0.1 uM KAM; 0.01 uM KAM; 0.001 uM KAM; RB50

[2] = target: T2, BLVRA (Homo sapiens, UniProt P53004);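 as to 0.001 uM KAM: median log10 fold change of treatment over DMSO control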;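 as to 0.01 uM KAM: median log10 fold change of treatment over DMSO control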;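 as to 0.1 uM KAM: median log10 fold change of treatment over DMSO control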;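 as to 1 uM KAM: median log10 fold change of treatment over DMSO control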;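 as to 10 uM KAM: median log10 fold change of treatment over DMSO control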
T2 construct: endogenous in cells; host or cells: K562
T2 sequence (P53004 3-296): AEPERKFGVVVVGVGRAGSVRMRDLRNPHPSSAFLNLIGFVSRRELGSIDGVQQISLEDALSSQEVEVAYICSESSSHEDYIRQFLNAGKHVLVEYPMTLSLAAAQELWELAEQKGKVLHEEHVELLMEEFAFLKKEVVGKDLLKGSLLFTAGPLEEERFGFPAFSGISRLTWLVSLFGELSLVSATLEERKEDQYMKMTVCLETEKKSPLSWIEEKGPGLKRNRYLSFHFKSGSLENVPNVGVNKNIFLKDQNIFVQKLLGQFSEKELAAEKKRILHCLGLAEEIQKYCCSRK
Protocol: as §1

[3] = target: T3, RPS6KA5 (Homo sapiens, UniProt O75582)
T3 construct: endogenous in cells; host or cells: K562
Protocol: as §1

[4] = target: T4, MAST2 (Homo sapiens, UniProt Q6P0Q8);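 as to 0.001 uM KAM: median log10 fold change of treatment over DMSO control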;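 as to 0.01 uM KAM: median log10 fold change of treatment over DMSO control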;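 as to 0.1 uM KAM: median log10 fold change of treatment over DMSO control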;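 as to 1 uM KAM: median log10 fold change of treatment over DMSO control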;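 as to 10 uM KAM: median log10 fold change of treatment over DMSO control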
T4 construct: endogenous in cells; host or cells: K562 cells (combined S0.8 and P0.8 lysate)
Protocol: as §1

[5] = target: T5, TRIM28 (Homo sapiens, UniProt Q13263);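 as to 0.001 uM KAM: median log10 fold change of treatment over DMSO control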;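 as to 0.01 uM KAM: median log10 fold change of treatment over DMSO control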;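 as to 0.1 uM KAM: median log10 fold change of treatment over DMSO control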;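 as to 1 uM KAM: median log10 fold change of treatment over DMSO control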;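 as to 10 uM KAM: median log10 fold change of treatment over DMSO control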
T5 construct: endogenous in cells; host or cells: K562
Protocol: as §1

[6] = target: T6, EEF2K (Homo sapiens, UniProt O00418);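 as to 0.001 uM KAM: median log10 fold change of treatment over DMSO control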;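 as to 0.01 uM KAM: median log10 fold change of treatment over DMSO control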;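 as to 0.1 uM KAM: median log10 fold change of treatment over DMSO control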;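 as to 1 uM KAM: median log10 fold change of treatment over DMSO control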;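 as to 10 uM KAM: median log10 fold change of treatment over DMSO control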
T6 construct: endogenous in cells; host or cells: K562 lysate
T6 sequence (O00418 1-725): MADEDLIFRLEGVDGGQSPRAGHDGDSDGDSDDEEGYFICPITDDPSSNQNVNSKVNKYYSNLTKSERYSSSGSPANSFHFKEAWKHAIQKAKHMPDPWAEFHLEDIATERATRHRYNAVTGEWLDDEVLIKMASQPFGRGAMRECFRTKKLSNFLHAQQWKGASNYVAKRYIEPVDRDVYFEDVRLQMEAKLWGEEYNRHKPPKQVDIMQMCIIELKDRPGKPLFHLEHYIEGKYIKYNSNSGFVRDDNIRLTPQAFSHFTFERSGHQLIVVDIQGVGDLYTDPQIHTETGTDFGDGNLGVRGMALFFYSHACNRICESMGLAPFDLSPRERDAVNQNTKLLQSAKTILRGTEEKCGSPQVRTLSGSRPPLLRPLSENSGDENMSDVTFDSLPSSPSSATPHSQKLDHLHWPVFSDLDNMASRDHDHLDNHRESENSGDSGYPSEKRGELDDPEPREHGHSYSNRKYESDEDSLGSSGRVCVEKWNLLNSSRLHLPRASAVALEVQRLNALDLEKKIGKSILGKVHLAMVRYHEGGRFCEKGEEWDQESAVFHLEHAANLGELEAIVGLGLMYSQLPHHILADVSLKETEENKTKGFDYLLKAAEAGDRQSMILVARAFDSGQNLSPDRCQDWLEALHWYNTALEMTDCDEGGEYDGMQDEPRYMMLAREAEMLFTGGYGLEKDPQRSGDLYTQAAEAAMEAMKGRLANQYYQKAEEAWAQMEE
Protocol: as §1

[7] = KAM 0.001-10 uM, read-out: RB50 (the source's name)

T5 sequence (Q13263 whole entry): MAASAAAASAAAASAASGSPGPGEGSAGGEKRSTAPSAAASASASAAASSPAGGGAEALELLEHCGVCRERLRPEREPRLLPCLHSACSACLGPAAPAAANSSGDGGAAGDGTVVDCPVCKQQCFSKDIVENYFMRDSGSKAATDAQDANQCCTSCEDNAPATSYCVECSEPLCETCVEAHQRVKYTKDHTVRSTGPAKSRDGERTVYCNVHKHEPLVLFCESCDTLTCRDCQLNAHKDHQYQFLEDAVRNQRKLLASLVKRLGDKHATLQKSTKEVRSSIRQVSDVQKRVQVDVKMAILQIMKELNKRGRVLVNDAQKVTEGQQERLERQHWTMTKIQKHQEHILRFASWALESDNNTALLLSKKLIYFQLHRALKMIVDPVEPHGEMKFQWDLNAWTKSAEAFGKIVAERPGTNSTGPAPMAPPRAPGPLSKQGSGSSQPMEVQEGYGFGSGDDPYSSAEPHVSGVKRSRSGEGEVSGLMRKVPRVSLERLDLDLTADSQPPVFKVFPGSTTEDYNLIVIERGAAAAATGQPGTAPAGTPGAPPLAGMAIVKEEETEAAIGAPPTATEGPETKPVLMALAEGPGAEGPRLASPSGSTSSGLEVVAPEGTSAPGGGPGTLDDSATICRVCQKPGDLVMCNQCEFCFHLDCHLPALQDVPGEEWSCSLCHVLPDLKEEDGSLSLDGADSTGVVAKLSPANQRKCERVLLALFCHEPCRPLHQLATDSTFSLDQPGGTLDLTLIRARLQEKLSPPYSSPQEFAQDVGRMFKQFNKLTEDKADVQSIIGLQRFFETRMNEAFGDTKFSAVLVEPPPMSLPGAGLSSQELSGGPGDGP
T3 sequence (O75582 whole entry): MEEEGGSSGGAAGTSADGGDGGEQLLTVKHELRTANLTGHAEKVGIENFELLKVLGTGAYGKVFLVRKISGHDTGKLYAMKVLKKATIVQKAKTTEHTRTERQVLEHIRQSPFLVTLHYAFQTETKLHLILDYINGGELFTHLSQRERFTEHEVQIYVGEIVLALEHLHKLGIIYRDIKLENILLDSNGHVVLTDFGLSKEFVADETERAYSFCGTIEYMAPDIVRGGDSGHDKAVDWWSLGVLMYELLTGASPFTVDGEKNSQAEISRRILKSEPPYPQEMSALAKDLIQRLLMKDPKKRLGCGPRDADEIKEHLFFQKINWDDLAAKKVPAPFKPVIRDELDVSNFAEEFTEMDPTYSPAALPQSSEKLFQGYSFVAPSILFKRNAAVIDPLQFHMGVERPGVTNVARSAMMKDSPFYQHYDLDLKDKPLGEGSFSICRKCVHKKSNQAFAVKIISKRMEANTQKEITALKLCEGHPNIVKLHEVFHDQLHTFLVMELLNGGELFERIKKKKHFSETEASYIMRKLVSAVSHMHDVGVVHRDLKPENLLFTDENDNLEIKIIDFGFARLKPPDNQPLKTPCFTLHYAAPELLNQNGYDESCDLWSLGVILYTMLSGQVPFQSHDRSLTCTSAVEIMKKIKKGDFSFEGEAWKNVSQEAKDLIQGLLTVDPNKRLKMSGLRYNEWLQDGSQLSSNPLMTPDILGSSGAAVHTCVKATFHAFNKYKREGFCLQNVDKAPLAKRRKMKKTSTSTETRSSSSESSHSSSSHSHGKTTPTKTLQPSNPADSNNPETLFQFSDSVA
T4 sequence (Q6P0Q8 whole entry): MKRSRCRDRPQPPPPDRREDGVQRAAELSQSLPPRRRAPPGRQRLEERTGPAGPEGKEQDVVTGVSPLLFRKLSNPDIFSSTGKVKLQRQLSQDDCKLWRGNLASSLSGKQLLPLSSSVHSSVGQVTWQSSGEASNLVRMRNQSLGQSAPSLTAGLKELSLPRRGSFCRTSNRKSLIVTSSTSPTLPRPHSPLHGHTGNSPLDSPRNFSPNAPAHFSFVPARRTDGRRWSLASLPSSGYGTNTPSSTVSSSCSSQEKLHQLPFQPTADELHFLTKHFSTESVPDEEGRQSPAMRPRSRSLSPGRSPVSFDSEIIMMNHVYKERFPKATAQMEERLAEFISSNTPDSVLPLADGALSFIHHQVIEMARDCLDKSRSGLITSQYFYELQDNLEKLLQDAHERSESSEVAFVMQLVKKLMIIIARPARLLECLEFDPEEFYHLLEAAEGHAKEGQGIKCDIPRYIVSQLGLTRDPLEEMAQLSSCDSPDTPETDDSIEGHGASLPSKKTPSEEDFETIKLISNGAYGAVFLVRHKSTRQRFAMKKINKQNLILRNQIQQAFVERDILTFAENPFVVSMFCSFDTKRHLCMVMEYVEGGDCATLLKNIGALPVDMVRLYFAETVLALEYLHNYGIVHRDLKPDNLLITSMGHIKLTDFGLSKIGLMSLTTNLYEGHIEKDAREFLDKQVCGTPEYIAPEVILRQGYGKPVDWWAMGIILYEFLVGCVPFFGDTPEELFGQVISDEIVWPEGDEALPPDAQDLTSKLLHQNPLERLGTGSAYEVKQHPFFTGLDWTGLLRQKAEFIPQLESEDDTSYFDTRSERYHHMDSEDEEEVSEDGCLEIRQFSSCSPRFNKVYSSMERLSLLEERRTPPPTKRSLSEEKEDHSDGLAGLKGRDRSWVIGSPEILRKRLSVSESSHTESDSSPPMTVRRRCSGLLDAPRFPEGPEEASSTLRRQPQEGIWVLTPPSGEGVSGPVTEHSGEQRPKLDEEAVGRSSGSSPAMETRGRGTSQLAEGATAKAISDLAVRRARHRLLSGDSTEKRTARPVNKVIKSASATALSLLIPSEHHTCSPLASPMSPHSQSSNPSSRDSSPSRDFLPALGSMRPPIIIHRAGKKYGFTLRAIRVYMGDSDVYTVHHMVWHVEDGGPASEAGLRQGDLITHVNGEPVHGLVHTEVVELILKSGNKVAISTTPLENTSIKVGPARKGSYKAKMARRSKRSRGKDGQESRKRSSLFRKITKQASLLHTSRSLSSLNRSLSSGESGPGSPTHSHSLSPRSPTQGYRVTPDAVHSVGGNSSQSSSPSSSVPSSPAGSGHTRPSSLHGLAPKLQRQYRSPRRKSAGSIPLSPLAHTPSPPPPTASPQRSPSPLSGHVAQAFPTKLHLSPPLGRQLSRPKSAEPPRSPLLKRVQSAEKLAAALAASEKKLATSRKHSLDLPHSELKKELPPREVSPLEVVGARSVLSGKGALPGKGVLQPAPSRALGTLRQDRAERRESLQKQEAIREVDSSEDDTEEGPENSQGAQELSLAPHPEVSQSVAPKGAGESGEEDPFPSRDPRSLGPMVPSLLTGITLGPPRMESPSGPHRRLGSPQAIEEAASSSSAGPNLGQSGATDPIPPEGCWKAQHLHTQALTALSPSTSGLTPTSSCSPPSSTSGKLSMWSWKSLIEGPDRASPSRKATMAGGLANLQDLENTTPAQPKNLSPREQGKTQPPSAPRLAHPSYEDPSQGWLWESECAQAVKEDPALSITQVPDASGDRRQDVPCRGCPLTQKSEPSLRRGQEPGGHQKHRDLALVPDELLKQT

Compound: N#CCc1ccc(Nc2nc(NCCCN)cc(Nc3cc(C4CC4)[nH]n3)n2)cc1 [KAM]
- IC50 [1, 7]: > 10 µM
- 0.001 uM KAM ([1]; relative to 0 uM KAM = 0): 0.04398
- 0.01 uM KAM ([1]; relative to 0 uM KAM = 0): 0.009269
- 0.1 uM KAM ([1]; relative to 0 uM KAM = 0): 0.0383
- 1 uM KAM ([1]; relative to 0 uM KAM = 0): 0.01738
- 10 uM KAM ([1]; relative to 0 uM KAM = 0): 0.0482
- IC50 [2, 7]: > 10 µM
- 0.001 uM KAM ([2]; relative to 0 uM KAM = 0): 0.01315
- 0.01 uM KAM ([2]; relative to 0 uM KAM = 0): 0.09211
- 0.1 uM KAM ([2]; relative to 0 uM KAM = 0): 0.1192
- 1 uM KAM ([2]; relative to 0 uM KAM = 0): 0.1811
- 10 uM KAM ([2]; relative to 0 uM KAM = 0): 0.1365
- median Log10 fold change ([3]; 0.001 uM KAM): 0.02456
- median Log10 fold change ([3]; 0.01 uM KAM): -0.007608
- median Log10 fold change ([3]; 0.1 uM KAM): -0.1303
- median Log10 fold change ([3]; 1 uM KAM): -0.3238
- median Log10 fold change ([3]; 10 uM KAM): -0.3743
- IC50 ([3]; read-out: RB50 (the source's name)): 1.19 µM
- IC50 [4, 7]: > 10 µM
- 0.001 uM KAM ([4]; relative to 0 uM KAM = 0): -0.0424
- 0.01 uM KAM ([4]; relative to 0 uM KAM = 0): 0.0396
- 0.1 uM KAM ([4]; relative to 0 uM KAM = 0): -0.03782
- 1 uM KAM ([4]; relative to 0 uM KAM = 0): -0.1315
- 10 uM KAM ([4]; relative to 0 uM KAM = 0): -0.1411
- IC50 [5, 7]: > 10 µM
- 0.001 uM KAM ([5]; relative to 0 uM KAM = 0): 0.05535
- 0.01 uM KAM ([5]; relative to 0 uM KAM = 0): 0.00293
- 0.1 uM KAM ([5]; relative to 0 uM KAM = 0): 0.1066
- 1 uM KAM ([5]; relative to 0 uM KAM = 0): 0.08268
- 10 uM KAM ([5]; relative to 0 uM KAM = 0): 0.08032
- IC50 [6, 7]: > 10 µM
- 0.001 uM KAM ([6]; relative to 0 uM KAM = 0): 0.04185
- 0.01 uM KAM ([6]; relative to 0 uM KAM = 0): 0.02355
- 0.1 uM KAM ([6]; relative to 0 uM KAM = 0): 0.1074
- 1 uM KAM ([6]; relative to 0 uM KAM = 0): 0.1036
- 10 uM KAM ([6]; relative to 0 uM KAM = 0): 0.09999
